Results reported in ChEMBL document CHEMBL1201862, “PubChem BioAssay data set” (2004).
The source made the active and inactive calls.

Tests used:
Cytochrome P450 3A4 = Cytochrome P450 3A4 (Homo sapiens, UniProt P08684);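 also: CYP3A4 tested as one member of a cytochrome P450 panel screen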
[1] = target: T1, Corticotropin-releasing factor receptor 2/Corticotropin-releasing factor-binding protein (Homo sapiens, UniProt P24387+Q13324); experiment: activators of CRF receptor 2 with binding protein – uHTS hits, confirmation (AID 602473); type: functional; conditions: read-out: EC50_Mean
T1 sequence (Q13324 whole entry): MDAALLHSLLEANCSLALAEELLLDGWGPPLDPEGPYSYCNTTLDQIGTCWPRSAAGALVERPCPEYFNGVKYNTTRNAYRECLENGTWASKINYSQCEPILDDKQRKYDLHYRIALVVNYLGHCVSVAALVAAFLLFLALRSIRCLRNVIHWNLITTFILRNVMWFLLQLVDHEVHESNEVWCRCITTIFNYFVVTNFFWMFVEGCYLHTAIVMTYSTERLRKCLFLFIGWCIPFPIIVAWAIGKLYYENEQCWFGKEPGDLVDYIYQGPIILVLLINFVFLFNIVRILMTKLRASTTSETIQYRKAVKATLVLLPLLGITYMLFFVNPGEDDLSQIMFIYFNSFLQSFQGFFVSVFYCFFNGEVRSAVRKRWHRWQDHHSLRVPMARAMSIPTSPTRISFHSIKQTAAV
T1 sequence (P24387 whole entry): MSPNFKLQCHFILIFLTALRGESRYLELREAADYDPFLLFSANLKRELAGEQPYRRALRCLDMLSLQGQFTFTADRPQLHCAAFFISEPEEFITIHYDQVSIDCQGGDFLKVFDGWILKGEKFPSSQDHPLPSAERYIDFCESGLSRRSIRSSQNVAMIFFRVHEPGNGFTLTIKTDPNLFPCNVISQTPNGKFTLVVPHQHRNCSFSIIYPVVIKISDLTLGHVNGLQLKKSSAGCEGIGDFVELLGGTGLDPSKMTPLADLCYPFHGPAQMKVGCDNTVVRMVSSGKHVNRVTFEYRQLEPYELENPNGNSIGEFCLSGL

[2] = target: Peroxisome proliferator-activated receptor gamma/Nuclear receptor coactivator 1 (Homo sapiens, UniProt P37231); experiment: TR-FRET dose response biochemical High Throughput Screening assay for agonists of the steroid receptor coactivator 1 (SRC-1) recruitment by the peroxisome proliferator-activated receptor gamma (PPAR gamma): non-selective agonists. [Related pubchem assays (depositor defined):AID1300, AID1808, AID504735, AID631]; type: protein assay
[3] = target: T2, RNA-binding protein pos-1 (Caenorhabditis elegans, UniProt G5EF15); experiment: inhibitors of POS-1/mex-3 RNA binding, dose response, biochemical, fluorescence polarization (AID 1964);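 also: purified POS-1 fused to maltose binding protein made in E. coli; potency of compounds blocking POS-1 binding to fluorescent RNA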
T2 sequence (G5EF15 whole entry): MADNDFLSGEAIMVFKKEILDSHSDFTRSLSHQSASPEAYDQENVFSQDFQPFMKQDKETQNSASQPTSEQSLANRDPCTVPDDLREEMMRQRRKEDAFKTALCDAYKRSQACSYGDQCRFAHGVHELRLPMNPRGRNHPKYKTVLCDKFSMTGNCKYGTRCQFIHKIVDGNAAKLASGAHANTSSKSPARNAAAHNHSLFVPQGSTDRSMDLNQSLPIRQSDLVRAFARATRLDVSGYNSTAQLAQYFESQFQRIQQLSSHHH

[4] = target: Peroxisome proliferator-activated receptor gamma/Nuclear receptor coactivator 2 (Homo sapiens, UniProt P37231); experiment: TR-FRET dose response biochemical High Throughput Screening assay for agonists of the steroid receptor coactivator 2 (SRC-2) recruitment by the peroxisome proliferator-activated receptor gamma (PPAR gamma): non-selective agonists. [Related pubchem assays: 1297, 1032 ]; type: functional
[5] = target: T3, Zinc finger protein mex-5 (Caenorhabditis elegans, UniProt Q9XUB2); experiment: MEX-5/TCR-2 RNA interaction inhibitors, dose response, biochemical, C. elegans, fluorescence polarization (AID 1960)
T3 sequence (Q9XUB2 whole entry): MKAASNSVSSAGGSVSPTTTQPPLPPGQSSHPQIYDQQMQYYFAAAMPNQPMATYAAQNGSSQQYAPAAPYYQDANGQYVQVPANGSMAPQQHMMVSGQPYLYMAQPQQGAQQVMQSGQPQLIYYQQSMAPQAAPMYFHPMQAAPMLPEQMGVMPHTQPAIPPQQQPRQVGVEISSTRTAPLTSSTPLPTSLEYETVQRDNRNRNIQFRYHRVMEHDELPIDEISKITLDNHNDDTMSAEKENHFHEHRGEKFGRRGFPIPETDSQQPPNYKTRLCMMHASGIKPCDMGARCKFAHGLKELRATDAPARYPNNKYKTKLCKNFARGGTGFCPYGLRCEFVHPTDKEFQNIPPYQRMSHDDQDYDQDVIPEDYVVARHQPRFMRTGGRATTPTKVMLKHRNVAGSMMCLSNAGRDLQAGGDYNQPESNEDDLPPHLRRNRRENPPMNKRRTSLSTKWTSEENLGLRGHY

[6] = target: Peroxisome proliferator-activated receptor gamma/Nuclear receptor coactivator 3 (Homo sapiens, UniProt P37231); experiment: TR-FRET dose response biochemical High Throughput Screening assay for agonists of the steroid receptor coactivator 3 (SRC-3) recruitment by the peroxisome proliferator-activated receptor gamma (PPAR gamma): non-selective agonists. [Related pubchem assays: 1301 (Confirmation screen.), 1048 (Primary screen.)]; type: functional
[7] = target: T1, Corticotropin-releasing factor receptor 2/Corticotropin-releasing factor-binding protein; experiment: Dose Response confirmation of uHTS hits for small molecule antagonists of the CRF-binding protein and CRF-R2 receptor complex.; type: functional; conditions: read-out: IC50_Mean
Cytochrome P450 1A2 = target: T4, Cytochrome P450 1A2 (Homo sapiens, UniProt P05177);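 also: PubChem cytochrome P450 panel assay, CYP1A2 panel member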
T4 sequence (P05177 whole entry): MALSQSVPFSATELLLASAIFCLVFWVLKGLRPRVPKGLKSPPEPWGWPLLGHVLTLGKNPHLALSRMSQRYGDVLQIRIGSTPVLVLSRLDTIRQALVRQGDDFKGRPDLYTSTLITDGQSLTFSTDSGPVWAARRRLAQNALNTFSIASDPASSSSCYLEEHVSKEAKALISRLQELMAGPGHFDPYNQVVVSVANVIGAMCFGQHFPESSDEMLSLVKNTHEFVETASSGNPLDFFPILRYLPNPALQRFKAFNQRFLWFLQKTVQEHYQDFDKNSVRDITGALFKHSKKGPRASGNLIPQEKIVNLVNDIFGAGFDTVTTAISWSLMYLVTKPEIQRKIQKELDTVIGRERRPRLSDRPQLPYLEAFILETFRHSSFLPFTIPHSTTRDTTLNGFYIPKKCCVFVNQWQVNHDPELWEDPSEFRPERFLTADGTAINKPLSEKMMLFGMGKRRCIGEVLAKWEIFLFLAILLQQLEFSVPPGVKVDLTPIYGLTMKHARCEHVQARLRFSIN

[8] = microbe, parasite or virus in culture; type: functional; conditions: Mycobacterium tuberculosis
cells [9] = type: functional
cells [10] = type: functional, cell-based
[11] = target: T5, Nuclear receptor subfamily 0 group B member 1 (Homo sapiens, UniProt P51843); type: functional, cell-based;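 also: HEK293T cells transfected with SF-1 and DAX-1 plus StAR promoter luciferase reporter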
T5 sequence (P51843 whole entry): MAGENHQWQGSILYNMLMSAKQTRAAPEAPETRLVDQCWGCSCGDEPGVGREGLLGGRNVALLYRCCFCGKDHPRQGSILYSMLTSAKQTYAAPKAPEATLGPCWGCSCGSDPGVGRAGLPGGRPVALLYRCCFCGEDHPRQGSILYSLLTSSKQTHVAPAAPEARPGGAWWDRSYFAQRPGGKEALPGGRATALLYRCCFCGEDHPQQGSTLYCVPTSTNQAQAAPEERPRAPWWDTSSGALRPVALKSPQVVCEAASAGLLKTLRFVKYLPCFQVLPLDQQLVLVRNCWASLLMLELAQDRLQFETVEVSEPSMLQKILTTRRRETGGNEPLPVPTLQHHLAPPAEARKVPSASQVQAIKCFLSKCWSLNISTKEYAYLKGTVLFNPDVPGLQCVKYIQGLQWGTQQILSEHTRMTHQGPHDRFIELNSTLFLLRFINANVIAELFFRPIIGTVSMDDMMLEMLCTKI

A-375 = experiment: A375 melanoma cell viability reduction, dose response, counter-screen for MITF modulator project, cherry-pick samples, set 2 (AID 540335); type: functional, cell-based; conditions: Homo sapiens
[12] = target: T6, Microphthalmia-associated transcription factor (Homo sapiens, UniProt O75030); experiment: TRPM1 promoter luciferase signal decrease, dose response, MITF inhibitor project, cell-based, SK-MEL-5, cherry-picked, set 3 (AID 493073); type: functional
T6 sequence (O75030 whole entry): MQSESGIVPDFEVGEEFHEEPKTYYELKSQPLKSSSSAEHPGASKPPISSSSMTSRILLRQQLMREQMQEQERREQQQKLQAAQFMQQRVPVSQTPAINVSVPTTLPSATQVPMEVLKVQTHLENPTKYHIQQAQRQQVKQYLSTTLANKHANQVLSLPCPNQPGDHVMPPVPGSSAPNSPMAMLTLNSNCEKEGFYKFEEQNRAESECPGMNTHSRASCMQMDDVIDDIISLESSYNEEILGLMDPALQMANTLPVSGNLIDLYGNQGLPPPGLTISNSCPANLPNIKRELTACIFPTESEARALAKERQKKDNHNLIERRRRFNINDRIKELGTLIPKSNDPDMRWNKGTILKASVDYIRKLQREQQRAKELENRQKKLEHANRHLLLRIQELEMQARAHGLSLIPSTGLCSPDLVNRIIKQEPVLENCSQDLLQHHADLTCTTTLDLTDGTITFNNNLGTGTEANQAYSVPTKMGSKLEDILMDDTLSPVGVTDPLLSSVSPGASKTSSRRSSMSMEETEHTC

[13] = Luminescence Cell-Based Dose Retest to Confirm Inhibitors of Cancer Stem Cells. [Related pubchem assays (depositor defined):AID2717, AID2721]; type: functional; conditions: Homo sapiens
INS1 = experiment: beta cell apoptosis inhibitors, cytokine rescue, dose response, luminescence, retest (AID 449756); type: functional, cell-based; conditions: Rattus norvegicus;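 also: cell death triggered by IL-1 beta plus TNF-alpha plus IFN-gamma mixture; protective hits raise ATP signal compared with cytokine alone wells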
[14] = target: T7, Ubiquitin-conjugating enzyme E2 N (Homo sapiens, UniProt P61088); type: functional;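 also: Dose-response confirmation in a TR-FRET assay detecting UBC13-driven polyubiquitin chain formation, inhibition measured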
T7 sequence (P61088 whole entry): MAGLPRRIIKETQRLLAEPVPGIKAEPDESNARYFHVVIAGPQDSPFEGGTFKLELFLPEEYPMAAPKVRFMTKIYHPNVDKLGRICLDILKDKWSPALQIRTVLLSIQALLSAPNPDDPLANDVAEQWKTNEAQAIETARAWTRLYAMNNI

Cytochrome P450 2C19 = Cytochrome P450 2C19 (Homo sapiens, UniProt P33261); experiment: Cytochrome panel assay with activity outcomes. Panel member name: p450-cyp2c19 Compounds with AC50 equal or less than 10 uM are considered active; type: functional; conditions: read-out: AC50
Cytochrome P450 2C9 = Cytochrome P450 2C9 (Homo sapiens, UniProt P11712)
Paired box protein Pax-8 = Paired box protein Pax-8 (Homo sapiens, UniProt Q06710); experiment: inhibitors of PAX8-driven TPO luciferase reporter, dose response, RMG-I cells, cherry-pick (AID 687027); type: functional, cell-based;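 also: luciferase reporter driven by Pax8 target thyroperoxidase promoter measured by SteadyGlo luminescence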

Chain of Peroxisome proliferator-activated receptor gamma/Nuclear receptor coactivator 1 (P37231 whole entry, the tested form may be a part): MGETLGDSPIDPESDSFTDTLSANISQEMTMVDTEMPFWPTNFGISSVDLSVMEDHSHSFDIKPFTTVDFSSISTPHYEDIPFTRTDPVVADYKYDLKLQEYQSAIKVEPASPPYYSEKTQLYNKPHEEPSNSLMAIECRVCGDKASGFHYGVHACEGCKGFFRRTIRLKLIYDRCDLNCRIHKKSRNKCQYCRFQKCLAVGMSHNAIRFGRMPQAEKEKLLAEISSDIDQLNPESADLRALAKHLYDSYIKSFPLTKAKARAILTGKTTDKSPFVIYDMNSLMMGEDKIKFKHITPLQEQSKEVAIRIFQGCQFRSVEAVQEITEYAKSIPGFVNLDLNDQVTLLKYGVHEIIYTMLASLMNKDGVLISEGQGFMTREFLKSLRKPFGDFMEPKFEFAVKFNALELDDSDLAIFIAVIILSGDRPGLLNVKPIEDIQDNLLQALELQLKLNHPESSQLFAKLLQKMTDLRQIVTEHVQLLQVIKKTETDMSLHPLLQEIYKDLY
Chain of Peroxisome proliferator-activated receptor gamma/Nuclear receptor coactivator 1 (Q15788 whole entry, further chain, the tested form may be a part): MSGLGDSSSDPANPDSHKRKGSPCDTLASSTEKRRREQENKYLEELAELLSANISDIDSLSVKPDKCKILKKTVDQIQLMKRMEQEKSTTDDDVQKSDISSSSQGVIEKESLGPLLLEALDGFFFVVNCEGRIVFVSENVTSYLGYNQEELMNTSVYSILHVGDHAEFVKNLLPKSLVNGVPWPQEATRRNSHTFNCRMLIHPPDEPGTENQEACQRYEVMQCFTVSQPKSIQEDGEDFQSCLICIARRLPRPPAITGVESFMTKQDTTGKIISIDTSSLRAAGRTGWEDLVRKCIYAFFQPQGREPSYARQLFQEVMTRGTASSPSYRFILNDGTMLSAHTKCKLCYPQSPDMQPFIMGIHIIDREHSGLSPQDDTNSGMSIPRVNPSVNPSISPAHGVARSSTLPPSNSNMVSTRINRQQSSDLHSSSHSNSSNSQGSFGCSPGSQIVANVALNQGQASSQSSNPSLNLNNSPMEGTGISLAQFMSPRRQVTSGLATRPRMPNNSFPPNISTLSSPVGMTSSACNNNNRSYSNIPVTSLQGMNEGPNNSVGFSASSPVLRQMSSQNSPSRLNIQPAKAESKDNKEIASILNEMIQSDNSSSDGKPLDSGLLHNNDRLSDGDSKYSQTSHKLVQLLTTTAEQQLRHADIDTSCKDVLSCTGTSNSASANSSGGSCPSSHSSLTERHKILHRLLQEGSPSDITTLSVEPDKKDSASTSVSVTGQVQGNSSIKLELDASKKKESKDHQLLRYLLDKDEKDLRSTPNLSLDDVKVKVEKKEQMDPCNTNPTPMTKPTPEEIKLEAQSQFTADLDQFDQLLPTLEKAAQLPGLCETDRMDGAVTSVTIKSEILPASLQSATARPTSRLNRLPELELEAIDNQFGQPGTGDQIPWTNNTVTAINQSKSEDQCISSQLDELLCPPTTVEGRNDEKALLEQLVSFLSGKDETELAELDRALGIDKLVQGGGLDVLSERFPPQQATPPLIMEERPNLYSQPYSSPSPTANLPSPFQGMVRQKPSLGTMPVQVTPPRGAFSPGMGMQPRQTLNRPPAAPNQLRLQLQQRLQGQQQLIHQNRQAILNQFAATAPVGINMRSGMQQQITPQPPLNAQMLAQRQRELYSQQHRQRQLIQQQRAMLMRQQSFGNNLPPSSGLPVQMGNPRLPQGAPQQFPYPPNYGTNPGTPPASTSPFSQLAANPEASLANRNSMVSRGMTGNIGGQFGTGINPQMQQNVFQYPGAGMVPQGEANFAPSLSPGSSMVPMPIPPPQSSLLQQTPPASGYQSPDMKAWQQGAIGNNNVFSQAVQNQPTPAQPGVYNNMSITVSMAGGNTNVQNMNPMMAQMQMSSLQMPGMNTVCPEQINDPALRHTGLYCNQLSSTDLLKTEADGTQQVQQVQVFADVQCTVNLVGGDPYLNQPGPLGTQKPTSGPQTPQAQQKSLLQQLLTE
Chain of Peroxisome proliferator-activated receptor gamma/Nuclear receptor coactivator 3 (P37231 whole entry): as the sequence (P37231 whole entry, the tested form may be a part) above
Chain of Peroxisome proliferator-activated receptor gamma/Nuclear receptor coactivator 3 (Q9Y6Q9 whole entry, further chain): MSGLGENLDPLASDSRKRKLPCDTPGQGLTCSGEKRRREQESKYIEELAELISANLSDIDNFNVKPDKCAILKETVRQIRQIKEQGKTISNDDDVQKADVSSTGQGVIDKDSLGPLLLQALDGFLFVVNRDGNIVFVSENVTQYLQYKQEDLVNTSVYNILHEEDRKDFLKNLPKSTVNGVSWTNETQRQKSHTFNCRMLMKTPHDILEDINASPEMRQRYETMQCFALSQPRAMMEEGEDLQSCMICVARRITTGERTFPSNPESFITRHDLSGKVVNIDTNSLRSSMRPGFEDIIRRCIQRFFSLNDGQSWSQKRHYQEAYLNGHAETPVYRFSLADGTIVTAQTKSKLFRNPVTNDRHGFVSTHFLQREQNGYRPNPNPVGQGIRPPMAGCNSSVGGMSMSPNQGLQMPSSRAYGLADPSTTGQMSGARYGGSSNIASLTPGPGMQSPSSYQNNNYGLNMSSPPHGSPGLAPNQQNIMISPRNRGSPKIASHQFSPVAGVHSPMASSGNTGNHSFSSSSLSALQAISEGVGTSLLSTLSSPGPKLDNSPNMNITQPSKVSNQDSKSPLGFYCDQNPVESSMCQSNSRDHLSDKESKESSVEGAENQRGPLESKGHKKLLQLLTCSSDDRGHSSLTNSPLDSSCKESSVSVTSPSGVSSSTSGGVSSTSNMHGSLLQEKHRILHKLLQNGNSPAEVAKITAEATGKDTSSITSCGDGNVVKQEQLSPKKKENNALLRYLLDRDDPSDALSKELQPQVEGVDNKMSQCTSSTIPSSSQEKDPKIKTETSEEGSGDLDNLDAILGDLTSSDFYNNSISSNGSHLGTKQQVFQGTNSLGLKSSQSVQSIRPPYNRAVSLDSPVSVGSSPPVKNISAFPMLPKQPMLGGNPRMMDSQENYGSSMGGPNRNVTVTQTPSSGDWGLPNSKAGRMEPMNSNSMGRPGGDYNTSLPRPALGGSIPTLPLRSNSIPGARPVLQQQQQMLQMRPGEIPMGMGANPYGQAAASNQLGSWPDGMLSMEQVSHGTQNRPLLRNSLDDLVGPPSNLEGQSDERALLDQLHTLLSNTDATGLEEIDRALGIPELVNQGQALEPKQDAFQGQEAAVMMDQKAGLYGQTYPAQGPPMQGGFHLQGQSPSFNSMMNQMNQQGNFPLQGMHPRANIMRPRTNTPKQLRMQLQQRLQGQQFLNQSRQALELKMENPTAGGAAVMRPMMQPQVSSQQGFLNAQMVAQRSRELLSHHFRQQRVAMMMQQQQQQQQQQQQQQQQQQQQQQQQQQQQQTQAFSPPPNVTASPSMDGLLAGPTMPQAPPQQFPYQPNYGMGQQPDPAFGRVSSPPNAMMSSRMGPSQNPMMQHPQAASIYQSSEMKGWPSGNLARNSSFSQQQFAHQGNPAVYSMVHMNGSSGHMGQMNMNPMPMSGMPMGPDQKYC
Chain of Cytochrome P450 3A4 (P08684 whole entry): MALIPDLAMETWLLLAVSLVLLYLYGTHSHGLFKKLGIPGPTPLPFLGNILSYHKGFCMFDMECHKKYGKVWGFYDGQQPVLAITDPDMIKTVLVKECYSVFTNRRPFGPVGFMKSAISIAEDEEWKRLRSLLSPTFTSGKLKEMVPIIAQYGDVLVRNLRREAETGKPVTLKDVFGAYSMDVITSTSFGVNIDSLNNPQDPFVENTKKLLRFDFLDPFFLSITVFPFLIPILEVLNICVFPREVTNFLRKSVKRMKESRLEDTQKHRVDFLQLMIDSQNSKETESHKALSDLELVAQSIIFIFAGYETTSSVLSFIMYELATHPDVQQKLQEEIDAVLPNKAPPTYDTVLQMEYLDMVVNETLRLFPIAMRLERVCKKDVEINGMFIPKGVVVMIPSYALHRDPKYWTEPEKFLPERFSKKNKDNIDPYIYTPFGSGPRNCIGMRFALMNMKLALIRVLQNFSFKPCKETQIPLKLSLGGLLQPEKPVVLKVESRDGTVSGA
Chain of Cytochrome P450 2C9 (P11712 whole entry): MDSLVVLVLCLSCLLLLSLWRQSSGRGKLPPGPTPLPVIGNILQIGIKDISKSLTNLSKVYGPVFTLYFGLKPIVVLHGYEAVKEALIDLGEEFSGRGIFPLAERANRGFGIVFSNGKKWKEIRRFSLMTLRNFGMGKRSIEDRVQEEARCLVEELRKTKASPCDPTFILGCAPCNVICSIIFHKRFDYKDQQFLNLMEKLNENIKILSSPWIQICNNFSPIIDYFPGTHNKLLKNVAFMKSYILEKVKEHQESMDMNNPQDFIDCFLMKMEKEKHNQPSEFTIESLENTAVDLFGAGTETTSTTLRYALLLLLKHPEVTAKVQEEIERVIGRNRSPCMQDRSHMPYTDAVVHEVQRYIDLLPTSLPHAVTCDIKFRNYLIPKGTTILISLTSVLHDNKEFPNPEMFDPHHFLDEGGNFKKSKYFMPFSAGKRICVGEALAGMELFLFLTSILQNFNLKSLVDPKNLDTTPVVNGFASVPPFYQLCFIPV

## CCn1c(/C=C2/C(=O)N(C)c3ccccc32)nc2ccccc2c1=O
Cytochrome P450 3A4
  AC50: inconclusive

## C=CCOc1ccc(C2C(C(=O)c3ccco3)=C(O)C(=O)N2c2nnc(C)s2)cc1 (stereo not given)
[1]
  EC50: > 53 µM (inactive)
[2]
  EC50: > 79.4 µM (inactive)
[3]
  EC50: > 300 µM (not active)
[4]
  EC50: > 79.4 µM (not active)
[5]
  EC50: > 300 µM (not active)
[6]
  EC50: > 79.4 µM (not active)
[7]
  IC50: > 47.1 µM (inactive)

## CCc1cc2cc(C(=O)Nc3ccc(F)cc3)sc2s1
[2]
  EC50: > 79.4 µM (inactive)
[4]
  EC50: 57.1 µM (not active)
[6]
  EC50: > 79.4 µM (not active)

## CCn1c(=O)cc(SCC(=O)N2CCN(c3ccccn3)CC2)c2ccccc21
[2]
  EC50: > 79.4 µM (inactive)
[4]
  EC50: > 79.4 µM (not active)
[6]
  EC50: > 79.4 µM (not active)

## Cc1cc(/C=N\NC(=O)c2cccs2)c(C)n1-c1ccc2ncccc2c1
Cytochrome P450 1A2
  AC50: 39.8 µM (inconclusive)
Cytochrome P450 3A4
  AC50: inconclusive
[8]
  CC50: > 40 µM (active)
Cells [9]
  IC50: 34 µM (active)

## CC(=Nc1ccccc1)C1=C(O)C(Cc2ccccc2)NC1=O (stereo not given)
Cells [10]
  IC50: > 67.6 µM (inactive)
[11]
  IC50: 15.8 µM (inactive)

## CCN1CCN(CCCNC(=O)c2ccc3c(c2)NC(=O)/C(=C\c2cccc(C)c2)S3)CC1
A-375
  AC50: 17.5 µM (active)
[12]
  AC50: 9.93 µM (active)
[13]
  AC50: 4.17 µM (active)
INS1
  AC50: 6.5 µM (active)
[14]
  IC50: > 20 µM (inactive)

## Cc1ccnc(NC(=O)c2cccc(S(=O)(=O)N3CCOCC3)c2)c1
Cells [10]
  IC50: > 67.5 µM (inactive)
[11]
  IC50: > 67.5 µM (inactive)

## CCCC(=O)N1CCN(c2ccc(NC(=O)c3sc4ccccc4c3Cl)cc2)CC1
Cytochrome P450 2C19
  AC50: 0.158 µM (inconclusive)
Cytochrome P450 2C9
  AC50: 5.01 µM (inconclusive)
Cytochrome P450 3A4
  AC50: inconclusive

## CC(=O)Nc1ccc(-c2ccnc3c2CC(C(=O)NCc2ccccc2)O3)cc1 (stereo not given)
Cells [10]
  IC50: > 67.5 µM (inactive)
[11]
  IC50: > 67.5 µM (inactive)
Paired box protein Pax-8
  AC50: 1.5 µM (active)

## CN1CCN(c2ccc(-c3cccc(NC(=O)COc4ccc(Cl)cc4)c3)nn2)CC1
Cells [10]
  IC50: > 67.5 µM (inactive)
[11]
  IC50: > 67.5 µM (inactive)

## O=C(OC1CCN(c2ncc(C(F)(F)F)cc2Cl)CC1)c1cccc(C(F)(F)F)c1
Cytochrome P450 2C19
  AC50: 8.91 µM (inconclusive)
Cytochrome P450 2C9
  AC50: 0.2 µM (inconclusive)
Cytochrome P450 3A4
  AC50: inconclusive

## O=C(c1ccc(F)cc1)C1CCN(CCCCc2ccccc2)CC1
Cytochrome P450 1A2
  AC50: 31.6 µM (inconclusive)
Cytochrome P450 3A4
  AC50: inconclusive
